{
  "source": "ChEMBL document CHEMBL3880414",
  "about": "“Isoform Selective HDAC Inhibitors” (2010)",
  "key": {"[1]": {"experiment": "Antiproliferative activity against human SCC35 cells", "assay_type": "functional, cell-based"}, "[2]": {"experiment": "Antiproliferative activity against human DU145 cells", "assay_type": "functional, cell-based", "conditions": "DU-145"}, "[3]": {"experiment": "Antiproliferative activity against human MCF7/ADR cells", "assay_type": "functional, cell-based", "conditions": "NCI/ADR-RES"}, "[4]": {"experiment": "Antiproliferative activity against human MDA231 cells", "assay_type": "functional, cell-based", "conditions": "MDA-MB-231"}, "Plasmodium falciparum [5]": {"tested_on": "Plasmodium falciparum", "experiment": "Antiparasitic activity against Plasmodium falciparum 7G8 assessed as growth inhibition after 56 hrs", "assay_type": "functional"}, "Plasmodium falciparum [6]": {"tested_on": "Plasmodium falciparum", "experiment": "Antiparasitic activity against Plasmodium falciparum FCR-3/Gambia assessed as growth inhibition after 56 hrs", "assay_type": "functional"}, "Plasmodium falciparum [7]": {"tested_on": "Plasmodium falciparum", "experiment": "Antiparasitic activity against Plasmodium falciparum Dd2 assessed as growth inhibition after 56 hrs", "assay_type": "functional"}, "Plasmodium falciparum [8]": {"tested_on": "Plasmodium falciparum", "experiment": "Antiparasitic activity against Plasmodium falciparum 3D7 assessed as growth inhibition after 56 hrs", "assay_type": "functional"}, "[9]": {"experiment": "Antiproliferative activity against human MCF10A cells", "assay_type": "cell-based", "conditions": "MCF-10A"}, "Plasmodium falciparum [10]": {"tested_on": "Plasmodium falciparum", "experiment": "Antiparasitic activity against chloroquine-resistant/verapamil-insensitive Plasmodium falciparum 7G8", "assay_type": "functional"}, "Plasmodium falciparum [11]": {"tested_on": "Plasmodium falciparum", "experiment": "Antiparasitic activity against chloroquine-resistant/verapamil-sensitive Plasmodium falciparum Dd2", "assay_type": "functional"}, "Plasmodium falciparum [12]": {"tested_on": "Plasmodium falciparum", "experiment": "Antiparasitic activity against chloroquine-resistant/verapamil-sensitive Plasmodium falciparum FCR-3/Gambia", "assay_type": "functional"}, "Plasmodium falciparum [13]": {"tested_on": "Plasmodium falciparum", "experiment": "Antiparasitic activity against chloroquine-sensitive Plasmodium falciparum 3D7", "assay_type": "functional"}, "Plasmodium falciparum [14]": {"tested_on": "Plasmodium falciparum", "experiment": "Antiparasitic activity against chloroquine-sensitive Plasmodium falciparum HB3", "assay_type": "functional"}, "Plasmodium falciparum [15]": {"tested_on": "Plasmodium falciparum", "experiment": "Antiparasitic activity against chloroquine-resistant/verapamil-sensitive Plasmodium falciparum Dd2 assessed as growth inhibition in presence of chloroquine", "assay_type": "functional"}, "[16]": {"target": "T1, Histone deacetylase (Homo sapiens) (UniProt Q13547+O15379+Q9UBN7+Q92769+Q9UQL6+Q8WUI4+Q9BY41+Q96DB2+P56524+Q9UKV0+Q969S8)", "experiment": "Potency index, ratio of trichostatin A IC50 to compound IC50 for HDAC (unknown origin)", "assay_type": "protein assay"}, "Plasmodium falciparum [17]": {"tested_on": "Plasmodium falciparum", "experiment": "Antiparasitic activity against Plasmodium falciparum 3D7 assessed as growth inhibition", "assay_type": "functional"}, "Plasmodium falciparum [18]": {"tested_on": "Plasmodium falciparum", "experiment": "Antiparasitic activity against Plasmodium falciparum Dd2 assessed as growth inhibition", "assay_type": "functional"}, "[19]": {"target": "T1, Histone deacetylase (Homo sapiens)", "experiment": "Inhibition of HDAC (unknown origin) at 100 nM using Fluor-Lys as substrate relative to control", "assay_type": "protein assay"}, "[20]": {"experiment": "Antiproliferative activity against human HS68 cells", "assay_type": "cell-based"}, "[21]": {"experiment": "Antiproliferative activity against human NHP5 cells", "assay_type": "cell-based"}, "Plasmodium falciparum [22]": {"tested_on": "Plasmodium falciparum", "experiment": "Antiparasitic activity against chloroquine-resistant/verapamil-sensitive Plasmodium falciparum FCB", "assay_type": "functional"}, "Plasmodium falciparum [23]": {"tested_on": "Plasmodium falciparum", "experiment": "Antiparasitic activity against chloroquine-resistant/verapamil-sensitive Plasmodium falciparum VS/1", "assay_type": "functional"}, "Plasmodium falciparum [24]": {"tested_on": "Plasmodium falciparum", "experiment": "Potentiation of chloroquine-induced anitiparasitic activity in chloroquine-resistant/verapamil-sensitive Plasmodium falciparum FCB assessed as decrease in chloroquine IC50 relative to control", "assay_type": "functional"}, "Plasmodium falciparum [25]": {"tested_on": "Plasmodium falciparum", "experiment": "Potentiation of chloroquine-induced anitiparasitic activity in chloroquine-resistant/verapamil-sensitive Plasmodium falciparum Dd2 assessed as decrease in chloroquine IC50 relative to control", "assay_type": "functional"}},
  "note": "The source made the active and inactive calls. The calls are words filed in the database; no cut-off is given here.",
  "data": [
    {"smiles": "O=C(CCCCCCC(=O)Nc1nc(-c2ccccc2)cs1)NO", "values": [
      {"measurement": "IC50", "setting": "[1]", "result": 280, "unit": "nM"},
      {"measurement": "IC50", "setting": "[2]", "result": 190, "unit": "nM"},
      {"measurement": "IC50", "setting": "[3]", "result": 400, "unit": "nM"},
      {"measurement": "IC50", "setting": "[4]", "result": "< 400", "unit": "nM"},
      {"measurement": "growth inhibition (GI)", "setting": "Plasmodium falciparum [5]", "result": "Active"},
      {"measurement": "growth inhibition (GI)", "setting": "Plasmodium falciparum [6]", "result": "Active"},
      {"measurement": "growth inhibition (GI)", "setting": "Plasmodium falciparum [7]", "result": "Active"},
      {"measurement": "growth inhibition (GI)", "setting": "Plasmodium falciparum [8]", "result": "Active"}
    ]},
    {"smiles": "N[C@@H](Cc1ccccc1)C(=O)Nc1ccccc1-c1ccc(NC(=O)CCCCCCC(=O)NO)cc1", "values": [
      {"measurement": "IC50", "setting": "[9]", "result": 100000, "unit": "nM"}
    ]},
    {"smiles": "O=C(CCCCCCC(=O)Nc1nc(-c2cccc([N+](=O)[O-])c2)cs1)NO", "values": [
      {"measurement": "IC50", "setting": "[1]", "result": 380, "unit": "nM"},
      {"measurement": "IC50", "setting": "[2]", "result": 320, "unit": "nM"},
      {"measurement": "IC50", "setting": "[3]", "result": 3000, "unit": "nM"},
      {"measurement": "IC50", "setting": "[4]", "result": "< 400", "unit": "nM"},
      {"measurement": "growth inhibition (GI)", "setting": "Plasmodium falciparum [5]", "result": "Active"},
      {"measurement": "growth inhibition (GI)", "setting": "Plasmodium falciparum [6]", "result": "Active"},
      {"measurement": "growth inhibition (GI)", "setting": "Plasmodium falciparum [7]", "result": "Active"},
      {"measurement": "growth inhibition (GI)", "setting": "Plasmodium falciparum [8]", "result": "Active"},
      {"measurement": "IC50", "setting": "Plasmodium falciparum [10]", "result": 10, "unit": "nM"},
      {"measurement": "IC50", "setting": "Plasmodium falciparum [11]", "result": 12, "unit": "nM"},
      {"measurement": "IC50", "setting": "Plasmodium falciparum [12]", "result": 22, "unit": "nM"},
      {"measurement": "IC50", "setting": "Plasmodium falciparum [13]", "result": 30, "unit": "nM"}
    ]},
    {"smiles": "Nc1cccc(-c2csc(NC(=O)CCCCCCC(=O)NO)n2)c1", "values": [
      {"measurement": "IC50", "setting": "[1]", "result": 100, "unit": "nM"},
      {"measurement": "IC50", "setting": "[2]", "result": 320, "unit": "nM"},
      {"measurement": "IC50", "setting": "[3]", "result": 3000, "unit": "nM"},
      {"measurement": "IC50", "setting": "[4]", "result": "< 400", "unit": "nM"},
      {"measurement": "growth inhibition (GI)", "setting": "Plasmodium falciparum [5]", "result": "Active"},
      {"measurement": "growth inhibition (GI)", "setting": "Plasmodium falciparum [6]", "result": "Active"},
      {"measurement": "growth inhibition (GI)", "setting": "Plasmodium falciparum [7]", "result": "Active"},
      {"measurement": "growth inhibition (GI)", "setting": "Plasmodium falciparum [8]", "result": "Active"},
      {"measurement": "IC50", "setting": "Plasmodium falciparum [10]", "result": 0.175, "unit": "nM"},
      {"measurement": "IC50", "setting": "Plasmodium falciparum [13]", "result": 1.25, "unit": "nM"},
      {"measurement": "IC50", "setting": "Plasmodium falciparum [14]", "result": 0.9, "unit": "nM"},
      {"measurement": "growth inhibition (GI)", "setting": "Plasmodium falciparum [15]", "result": "Active"}
    ]},
    {"smiles": "CCOC(=O)Nc1cccc(-c2csc(NC(=O)CCCCCCC(=O)NO)n2)c1", "values": [
      {"measurement": "Ratio IC50", "setting": "[16]", "result": 2},
      {"measurement": "IC50", "setting": "[1]", "result": 190, "unit": "nM"},
      {"measurement": "IC50", "setting": "[2]", "result": 520, "unit": "nM"}
    ]},
    {"smiles": "O=C(CCCCCCC(=O)Nc1ccc(-c2ccccc2)cc1)NO", "values": [
      {"measurement": "IC50", "setting": "[1]", "result": 100, "unit": "nM"},
      {"measurement": "IC50", "setting": "[2]", "result": 580, "unit": "nM"},
      {"measurement": "IC50", "setting": "[3]", "result": 350, "unit": "nM"},
      {"measurement": "IC50", "setting": "[4]", "result": "< 400", "unit": "nM"},
      {"measurement": "growth inhibition (GI)", "setting": "Plasmodium falciparum [17]", "result": "Active"},
      {"measurement": "growth inhibition (GI)", "setting": "Plasmodium falciparum [5]", "result": "Active"},
      {"measurement": "growth inhibition (GI)", "setting": "Plasmodium falciparum [18]", "result": "Active"}
    ]},
    {"smiles": "Nc1ccccc1-c1ccc(NC(=O)CCCCCCC(=O)NO)cc1", "values": [
      {"measurement": "IC50", "setting": "[1]", "result": 2580, "unit": "nM"},
      {"measurement": "IC50", "setting": "[2]", "result": 180, "unit": "nM"},
      {"measurement": "IC50", "setting": "[3]", "result": 10000, "unit": "nM"},
      {"measurement": "IC50", "setting": "[4]", "result": 1000, "unit": "nM"},
      {"measurement": "growth inhibition (GI)", "setting": "Plasmodium falciparum [17]", "result": "Active"},
      {"measurement": "growth inhibition (GI)", "setting": "Plasmodium falciparum [5]", "result": "Active"},
      {"measurement": "growth inhibition (GI)", "setting": "Plasmodium falciparum [18]", "result": "Active"}
    ]},
    {"smiles": "Nc1ccccc1-c1csc(NC(=O)CCCCCCC(=O)NO)n1", "values": [
      {"measurement": "inhibition", "setting": "[19]", "result": 2, "unit": "%"}
    ]},
    {"smiles": "N[C@@H](Cc1c[nH]c2ccccc12)C(=O)Nc1ccccc1-c1ccc(NC(=O)CCCCCCC(=O)NO)cc1", "values": [
      {"measurement": "IC50", "setting": "[9]", "result": "> 100000", "unit": "nM"},
      {"measurement": "IC50", "setting": "[20]", "result": "> 300000", "unit": "nM"}
    ]},
    {"smiles": "N[C@@H](Cc1ccc(O)cc1)C(=O)Nc1ccccc1-c1ccc(NC(=O)CCCCCCC(=O)NO)cc1", "values": [
      {"measurement": "IC50", "setting": "[21]", "result": 100000, "unit": "nM"},
      {"measurement": "IC50", "setting": "[9]", "result": "> 100000", "unit": "nM"},
      {"measurement": "IC50", "setting": "[20]", "result": "> 300000", "unit": "nM"}
    ]},
    {"smiles": "CN(C)c1ccc(NC(=O)NCCCCCCC(=O)NO)cc1", "values": [
      {"measurement": "IC50", "setting": "Plasmodium falciparum [10]", "result": 300, "unit": "nM"},
      {"measurement": "IC50", "setting": "Plasmodium falciparum [11]", "result": 185, "unit": "nM"},
      {"measurement": "IC50", "setting": "Plasmodium falciparum [12]", "result": 175, "unit": "nM"},
      {"measurement": "IC50", "setting": "Plasmodium falciparum [13]", "result": 450, "unit": "nM"},
      {"measurement": "IC50", "setting": "Plasmodium falciparum [14]", "result": 250, "unit": "nM"},
      {"measurement": "IC50", "setting": "Plasmodium falciparum [22]", "result": 125, "unit": "nM"},
      {"measurement": "IC50", "setting": "Plasmodium falciparum [23]", "result": 250, "unit": "nM"},
      {"measurement": "fold change (FC)", "setting": "Plasmodium falciparum [24]", "result": 5.5},
      {"measurement": "fold change (FC)", "setting": "Plasmodium falciparum [25]", "result": 3.5}
    ]}
  ]
}
